The subject of experiment [1] is platelets (platelet rich plasma). Kind of experiment: Inhibition of platelet aggregation, collagen as agonist. In kind it is cell-based. The note with it: human PRP; for inhibition at 30 µM: compound 30 μM; for inhibition at 5 µM: compound 5 μM. As to the method:
(§1) Platelet rich plasma (PRP) was obtained by drawing whole blood from normal human donors (not on any medication) into sodium citrate tubes (3.2%), and centrifuging at 160×g for about 10 minutes. Platelet poor plasma (PPP) was obtained by centrifuging the remainder of the sample after the platelets were removed at 800×g for about 10 minutes. The PRP was adjusted to a count of 280×10^9/L using a mixture of PRP and PPP. The platelets (200 μL) were incubated with the test compounds (25 μL) adjusted to various concentrations (5, 10, 20, 30, 50, and 100 μM) for about 30 minutes at room temperature (approximate final platelet count in the incubation mixture of 250×10^9/L). The samples were incubated for about 3 minutes at about 37° C., and then transferred to the mixing wells of a Chrono-log 4 channel aggregometer (Chrono-log Corp., Havertown, Pa.). After baselines were established, agonist (25 μL of 40 μM ADP (Sigma, St. Louis, Mo.) or 25 μL of 50 μg/mL and 10 μg/mL collagen (Helena Laboratories, Beaumont, Tex.) or 25 μL of 120 μM thrombin receptor activating peptide (TRAP) (Sigma)) was then added. Aggregation was monitored for 5 minutes at 37° C. with stirring (1000 rpm). The amplitude and slope of each tracing were calculated to determine the amount of aggregation. Control samples were performed using only solvent. The % reduction in aggregation was calculated for each sample compared to the proper solvent control.

For experiment [2] the test system is unchanged. Kind of experiment: Inhibition of platelet aggregation, ADP as agonist. In kind it is cell-based. The note with it: ADP 4 μM, human PRP, read-out: % Reduction in Aggregation ADP (4 μM); for inhibition at 30 µM: compound 30 μM. The procedure:
as §1

Experiment [3] shares this test system. Kind of experiment: Inhibition of platelet aggregation, thrombin receptor activating peptide (TRAP) as agonist. In kind it is cell-based. The note with it: TRAP 12 μM, human PRP, read-out: % Reduction in Aggregation TRAP (12 μM); for inhibition at 30 µM: compound 30 μM. The procedure: as §1
The target of the next experiment is T1, Human Thrombin (Homo sapiens, UniProt P00734).
T1 construct: Determination of Anti-Thrombin (Factor IIa) Activity; purchased Calbiochem
In words: Determination of Anti-Thrombin (Factor IIa) Activity. It is filed as biochemical. The note with it: competitive inhibition; substrate Pefachrome Thr; pH 8.3. The procedure: The test compounds (40 μL) adjusted to various concentrations (0.25 to 100 μM) were incubated with Human Thrombin (Calbiochem) enzyme (5 nM) in 31 mM Tris buffer (pH 8.3) containing 81 mM sodium chloride and 0.63% bovine serum albumin (fraction V)(80 μL) at room temperature for about 30 minutes. 80 μL of Pefachrome® Thr (Pentapharm) was adjusted to various concentrations, from 62.5 μM to 1.25 mM. The activity was measured at about 37° C. by monitoring absorbance at 405 nm for about 15 minutes using a FLUOstar OPTIMA™. Control sample was the solvent alone. Each test compound was analyzed twice using 4 concentrations of compound plus control (in duplicate) with 5 concentrations of substrate (50, 100, 200, 300 and 500 μM). The specific activity (ΔA405/min/nM enzyme) was determined for each data point. The Ki for competitive inhibition was then determined for each test compound using the Enzyme Kinetics module of Sigmaplot 8.0 (SPSS).

A further experiment addresses T2, Human FXa (Homo sapiens, UniProt P00742).
T2 construct: Determination of Anti-Factor Xa (Fxa) Activity; purchased Calbiochem
Kind of experiment: Determination of Anti-Factor Xa (Fxa) Activity. In kind it is biochemical. The note with it: competitive inhibition; substrate Pefachrome Xa; pH 7.5. As to the method: The test compounds (40 μL) adjusted to various concentrations (0.25 to 100 μM) were incubated with 5 nM Human FXa (Calbiochem, San Diego, Calif.) enzyme in 125 mM Tris [Tris(hydroxymethyl)aminomethane] buffer (pH 7.5) containing 375 mM sodium chloride and 0.25% polyethylene glycol (MW 8000) (80 μL) at room temperature for about 30 minutes. 80 μL of synthetic substrate Pefachrome® Xa (Pentapharm, Basel, Switzerland), adjusted to various concentrations from 125 μM to 1.25 mM, was added. The activity was measured at 37° C. by monitoring absorbance at 405 nm for 15 minutes using a FLUOstar OPTIMA™ (BMG Labtech GmbH, Offenburg, Germany) microplate reader. Control sample was the solvent alone. Each test compound was analyzed twice using 4 concentrations of compound plus control (in duplicate) with 5 concentrations of substrate (50, 100, 200, 300 and 500 μM). The specific activity (ΔA405/min/nM enzyme) was determined for each data point. The Ki for competitive inhibition was then determined for each test compound using the Enzyme Kinetics module of Sigmaplot 8.0 (SPSS Inc., Chicago, Ill.).

[4] abbreviates: collagen 1 μg/mL, read-out: % Reduction in Aggregation Collagen (1 μg/mL).
Where [5] appears, read: collagen 5 μg/mL, read-out: % Reduction in Aggregation Collagen (5 μg/mL).

In general, Ki refers to a dissociation constant, usually derived from enzyme kinetics or from competition with a known ligand.

T2 sequence (P00742 235-488 limits assumed): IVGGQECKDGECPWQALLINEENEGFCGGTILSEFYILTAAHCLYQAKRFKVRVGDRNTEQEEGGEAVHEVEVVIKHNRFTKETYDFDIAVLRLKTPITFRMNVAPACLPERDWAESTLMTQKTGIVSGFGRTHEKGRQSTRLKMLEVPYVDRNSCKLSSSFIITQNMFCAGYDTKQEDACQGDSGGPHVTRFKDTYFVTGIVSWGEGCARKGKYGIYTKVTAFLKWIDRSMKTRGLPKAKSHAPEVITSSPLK
T2 sequence (P00742 41-179 partner limits assumed): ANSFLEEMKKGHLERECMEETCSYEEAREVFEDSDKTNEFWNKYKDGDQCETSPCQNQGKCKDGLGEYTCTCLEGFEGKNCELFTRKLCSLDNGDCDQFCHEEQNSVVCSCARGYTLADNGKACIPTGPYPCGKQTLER

For `Cc1ncc(CNc2ccc(-c3ccc(C(=N)N)cc3)cc2)c(CO)c1OCc1ccc(C(=N)N)cc1` [Compound 6, 4′-{[5-(4-Carbamimidoyl-benzyloxy)-4-hydroxymethyl-6-methyl-pyridin-3-ylmethyl]-amino}-biphenyl-4-carboxamidine], the inhibition at 30 µM in experiment [1] (setting [4]) came to 100%; in experiment [1] (setting [5]), 44%; in experiment [2] it was 89%; in experiment [3], 86%. The values for the Ki at Human Thrombin and at Human FXa were 10.3 µM and 2.3 µM, respectively.

Turning to `Cc1ncc(CNc2ccc(-c3ccc(C(=N)N)cc3)cc2)c(C)c1OCc1ccc(C(=N)N)cc1` [Compound 25, 4′-{[5-(4-Carbamimidoyl-benzyloxy)-4,6-dimethyl-pyridin-3-ylmethyl]-amino}-biphenyl-4-carboxamidine], the inhibition at 30 µM in experiment [1] (setting [4]) came out at 96%; in experiment [1] (setting [5]) it was 52%; in experiment [2] it was 93%; in experiment [3] it was 95%. The Ki on Human Thrombin amounted to 3.77 µM; at Human FXa, 0.32 µM.

Take `Cc1ncc(CNc2ccc(-c3ccc(C(=N)N)cc3)cc2)c(C)c1OCc1cccc(C(=N)N)c1` [Compound 29, 4′-{[5-(3-Carbamimidoyl-benzyloxy)-4,6-dimethyl-pyridin-3-ylmethyl]-amino}-biphenyl-4-carboxamidine]: the inhibition at 30 µM in experiment [1] (setting [4]) is 32%; in experiment [1] (setting [5]) it was 15%; in experiment [2], 52%; in experiment [3], 32%. Moreover, the Ki amounted to 4.6 µM on Human Thrombin and 0.14 µM on Human FXa.

With `Cc1ncc(CNc2ccc(C(=N)N)cc2)c(C)c1OCc1ccc(C(=N)N)cc1` [Compound 31, 4-{[5-(4-Carbamimidoyl-benzyloxy)-4,6-dimethyl-pyridin-3-ylmethyl]-amino}-benzamidine], the inhibition at 10 µM in experiment [1] (compound 10 μM, collagen 1 μg/mL, read-out: % Reduction in Aggregation Collagen (1 μg/mL)) is 83%; in experiment [2] (compound 10 μM), 80%; in experiment [3] (compound 10 μM) it was 84%. Besides, the Ki at Human Thrombin was 0.062 µM; at Human FXa, 1.34 µM.

Consider `Cc1ncc(CNc2ccc(C(=N)N)cc2)c(C)c1OCc1cccc(C(=N)N)c1` [Compound 33, 4-{[5-(3-Carbamimidoyl-benzyloxy)-4,6-dimethyl-pyridin-3-ylmethyl]-amino}-benzamidine], for which the inhibition at 50 µM in experiment [1] (compound 50 μM, collagen 1 μg/mL, read-out: % Reduction in Aggregation Collagen (1 μg/mL)) amounted to 81%; in experiment [2] (compound 50 μM), 84%; in experiment [3] (compound 50 μM), 79%. Besides, the Ki is 0.031 µM at Human Thrombin and 0.284 µM on Human FXa.

With `Cc1ncc(CNc2ccc(-c3ccc(C(=N)N)cc3)cc2)c(CNCCCCCC(=O)O)c1OCc1ccc(C(=N)N)cc1` [Compound 56, 6-({3-(4-Carbamimidoyl-benzyloxy)-5-[(4′-carbamimidoyl-biphenyl-4-ylamino)-methyl]-2-methyl-pyridin-4-ylmethyl}-amino) hexanoic acid], the inhibition at 5 µM in experiment [1] (setting [4]) turned out to be 91%; in experiment [1] (setting [5]), 63%; in experiment [2] (compound 5 μM), 96%; in experiment [3] (compound 5 μM) it was 90%. The Ki at Human Thrombin is 0.848 µM; on Human FXa it was 6.2 µM.

For `Cc1ncc(CNc2ccc(-c3ccc(C(=N)N)cc3)cn2)c(CO)c1OCc1ccc(C(=N)N)cc1` [Compound 60], the inhibition at 30 µM in experiment [1] (setting [4]) is 47%; in experiment [1] (setting [5]) it was 26%; in experiment [2], 87%; in experiment [3], 89%. Further, the values for the Ki on Human Thrombin and on Human FXa were 11 µM and 25 µM, respectively.

(Values after patent US7812037B2, “Dual antiplatelet/anticoagulant pyridoxine analogs” (Medicure International, Inc., priority 2004, dated 2010).)
